The values that follow are results of earlier work, collected in patent US11638718B2, “Treatment of alphavirus-induced inflammation” (priority 2016, dated 2023).

This series has as its system alphavirus. The settings on record: earlier studies by the group (refs 30, 55-57); cited from earlier work.

Take `CN(Cc1cnc2nc(N)nc(N)c2n1)c1ccc(C(=O)N[C@@H](CCC(=O)O)C(=O)O)cc1` [methotrexate]: the “effect on alphavirus disease” value is reported as “increased the onset of RRV-induced musculoskeletal disease”.
